Measurements published in US20100143886A1, “IN VIVO HCV RESISTANCE TO ANTI-VIRAL INHIBITORS” (priority 2007, published 2010).
“Also recorded” adds a separate entry of the source.

Key:
HCV genotype 1a = assay: Viral load by commercial RT-TaqMan assay, chimpanzees dosed with Compound B (Example 1); format: in vivo, chimpanzee; conditions: two chimpanzees, oral 5 mg per kg b.i.d. for 7 days; level of quantitation 20 IU/ml
Procedure: Two chimpanzees chronically infected with HCV genotype 1a from a human were orally dosed with Compound B (a NS3 protease inhibitor) for 7 days at 5 mg per kg b.i.d. Plasma samples were collected prior, during, and after the dosing regimen, with viral load determined by a commercial viral load assay (RT-TaqMan, level of quantitation 20 IU/ml, Cenetron Diagnostics, Austin, Tex. 78758).

HCV genotype 3a = assay: Viral load by commercial RT-TaqMan assay, chimpanzee dosed with Compound A (Example 3); format: in vivo; conditions: 2 mg per kg IV for 7 days, level of quantitation 20 IU/ml
Procedure: A chimpanzee infected with a HCV genotype 3a from a human was dosed with Compound A (a N5B polymerase inhibitor) for 7 days at 2 mg per kg IV. Plasma samples were collected prior, during, and after the dosing regimen, with viral load determined by a commercial viral load assay (RT-TaqMan, level of quantitation 20 IU/ml, Cenetron Diagnostics, Austin, Tex. 78758).

Question: How did the viral load suppression (HCV genotype 1a) turn out when CC[C@@H]1C[C@]1(NC(=O)[C@@H]1C[C@@H]2CN1C(=O)[C@H](C(C)(C)C)NC(=O)OCC(C)(C)CCCCc1cccc3c1CN(C3)C(=O)O2)C(=O)NS(=O)(=O)C1CC1 [Compound B] was run?
Answer: Its viral load suppression is “below quantifiable levels; also recorded: below the limit of quantitation (BLQ)”.

Question: Which viral load suppression (HCV genotype 3a) does the source give for C[C@@]1(O)[C@H](O)[C@@H](CO)O[C@H]1n1ccc2c(N)ncnc21 [Compound A] here?
Answer: The viral load suppression was “below the limit of quantitation (BLQ); also recorded: below quantifiable levels”.
